Values of other authors in patent publication US20200386739A1, “TREATMENT OF METAHNOGENIC BACTERIA AS A THERAPY FOR CHRONIC LUNG DISEASE” (priority 2019, published 2020).
Positions of bridges follow the written chain, without caps; N, C: chain ends. Non-standard residues stand in square brackets, D forms with d. Residues, ends and D or L forms follow the SMILES beside them. *: point of attachment. Ileψ(thiazoline)Cys = CC[C@H](C)[C@H](N)C1=N[C@H](C(=O)*)CS1; dOrn = NCCC[C@@H](N)C(=O)O

How the values were obtained:
[1] = test system: guinea pig muscle strips from the ileum
small intestine of dogs = settings: in vivo infusion of methane into the small intestine of dogs; scintigraphy
guinea pig ileum = guinea pig ileum exposed to methane
Methanogens = settings: cell wall lacks peptidoglycan
[2] = test system: methane producing patients with IBS-C and chronic constipation

## NC1=N[C@H](O)[C@H]2[C@H]3O[C@]4(O)O[C@@H]([C@@H](O)[C@@]2(N1)[C@@H]4O)[C@]3(O)CO [tetrodotoxin]
[1]
  effect on the methane-induced increase of contractile amplitude: blocked

## CN1[C@@H]2CC[C@H]1C[C@@H](OC(=O)C(CO)c1ccccc1)C2 (some centres unmarked) [atropine]
[1]
  effect on the methane-induced increase of contractile amplitude: reduced

## C [methane]
Small intestine of dogs
  slowing of small intestinal transit time: 59%
Guinea pig ileum
  amplitude of contractions: increased
  area under the curve (AUC) of intraluminal pressure: increased
  peristaltic velocity: significantly decreased
[1]; methane infusion, ileum muscle strips
  contractile amplitude: increased

## O=C(N[C@H](CO)[C@H](O)c1ccc([N+](=O)[O-])cc1)C(Cl)Cl [chloramphenicol]
Methanogens
  susceptibility of methanogens: susceptible

## CC[C@H](C)[C@H](N)C1=N[C@H](C(=O)N[C@@H](CC(C)C)C(=O)N[C@H](CCC(=O)O)C(=O)N[C@H](C(=O)N[C@H]2CCCCNC(=O)[C@H](CC(N)=O)NC(=O)[C@@H](CC(=O)O)NC(=O)[C@H](Cc3cnc[nH]3)NC(=O)[C@@H](Cc3ccccc3)NC(=O)[C@H]([C@@H](C)CC)NC(=O)[C@@H](CCCN)NC2=O)[C@@H](C)CC)CS1 [bacitracin] ({Ileψ(thiazoline)Cys}-L[dE]IK[dOrn]I[dF]H[dD]N; lactam 4-C)
Methanogens
  susceptibility of methanogens: susceptible

## CO[C@H]1/C=C/O[C@@]2(C)Oc3c(C)c(O)c4c(O)c(c5c(nc6cc(C)ccn65)c4c3C2=O)NC(=O)/C(C)=C\C=C\[C@H](C)[C@H](O)[C@@H](C)[C@@H](O)[C@@H](C)[C@H](OC(C)=O)[C@@H]1C [rifaximin]
[2]
  colonic transit time and constipation symptoms: improvement
  methane production: reduced
